# Experimental data as given in US20200390755A1, “COMPOUND FOR TREATING NERVOUS SYSTEM DISEASES AND USE THEREOF” (SHAANXI MICOT TECHNOLOGY CO., LTD., priority 2018, published 2020).
# Tests used:
# [1] = target: T1, TrkB receptor (Mus musculus, UniProt P15209); assay: Western blotting of p-TrkB and t-TrkB in primary cortical neuron cells; type: cell-based; details: for Relative intensity of p-TrkB/t-TrkB protein: 10 min at 37° C., Vehicle = 100, n = 3
# T1 construct: The culture continued until the primary cortical neuron cells mature; endogenous in cells; host or cells: primary cortical neurons from E18 mouse embryos (N171-82Q WT male x B6C3F1/J female)
# Protocol: (§1) N171-82Q WT male mice were mated with female B6C3F1/J hybrid mice. B6C3F1/J mice 18 days after pregnancy were anesthetized with isoflurane and dissected to remove embryos, which were then placed in a 10 cm Petri dish containing Leibovitz's buffer. The head of the embryo was cut off, and the brain was peeled off to obtain the whole mouse brain, which was then placed in a new 10 cm Petri dish containing Leibovitz's buffer. The neurocortex of the brain was separated and placed in a 15 mL centrifuge tube containing 3 mL Leibovitz's buffer. The centrifuge tube was centrifuged at 1000 rpm for 1 minute, and the Leibovitz's buffer was gently removed from the centrifuge tube, and then 750 μL of 0.25% trypsin-EDTA and 75 μL of 0.1% DNase (2000 U/mL) were added to digest at 37° C. for 15 min. 750 μL of DMEM medium containing 5% FBS was added to stop the digestion. The cells were mixed well, and centrifuged at 1000 rpm for 5 minutes. Trypins/DNase mixture was removed, and 750 μL of Neurobasal medium (B-27, Glutamax, P/S) was added. The cells were mixed by gently pipetting with a pipette for 30 times. The cell suspension was filtered with a 40 µm filter and transferred to another new 50 mL centrifuge tube. 10 μL of the cell suspension was added to 90 μL of DMEM (diluted 10 times), and 10 μL of the liquid mixture was placed on a hemocytometer so that the suspension filled between the cover slip and the counting plate for counting. The cells in the four large grids of the plate were counted, wherein for the cells across the line, only the cells on the left and upper side lines were counted. The following formulas were used:
# (§2) Number of cells/mL=total number of cells in the four large grids/4×10^4/mL
# (§3) Total number of cells/mL=total number of cells in the four large grids/4×10^4/mL×dilution factor.
# (§4) After counting, the cells were diluted with Neurobasal selection medium so that 1 mL of Neurobasal culture medium contained 0.5×10^6 cells.
# (§5) 200 μL of PDL solution previously heated in a 37° C. water bath was added to each well of a 6-well plate, and incubated at 37° C. overnight to allow PDL to evenly coat the well plate. The PDL solution was absorbed and the plate was washed twice with PBS. Before use, the PBS remaining on the plate was absorbed and the cover was opened to dry the plate in a super clean bench. 2 mL of cell suspension was added to each well (37° C., 5% CO2), and the cells were cultured until adherence. The culture medium was replaced and the culture continued for 3 days, and then the growth status of neurons was observed. Every other 3 days, half of the medium was removed and replaced with fresh complete medium. The culture continued until the primary cortical neuron cells mature (usually mature on the 14th day of culture).
# (§6) After the primary cortical neuron cells have matured, appropriate amount of freshly prepared culture medium was added until final volume in each well was 2 mL. The experiment included a blank control group (Vehicle), a positive control group BDNF (10 ng/mL), a control compound group (500 nM), and 6 test compound groups (500 nM). Three repeats were set for each dose. After incubating at 37° C. for 10 min, the culture solution was discarded and the cells were washed with pre-chilled PBS, and then 40 μL of pre-chilled lysate (RIPA buffer 10 mL and protease and phosphatase inhibitor 100 μL) was added to each well for lysis on ice for 30 min. After lysis, the cell was crushed by ultrasonic cell crusher, centrifuged at 14000 rpm for 20 min at 4° C. The supernatant was transferred to a new 1.5 mL centrifuge tube to extract protein. Western blotting experiments were used to detect the protein levels of (A) p-TrkB and t-TrkB; (B) p-AKT and t-AKT.
# (§7) The software Sigmaplot 13.0 was used for statistical analysis of the data, and the data of each group was expressed as mean±standard error (x±SEM). […]
# [2] = system: AKT signaling pathway; assay: Western blotting of p-AKT and t-AKT in primary cortical neuron cells; type: cell-based, mouse; details: 10 min at 37° C., Vehicle = 100, n = 3
# Protocol: as §1, §2, §3, §4, §5, §6, §7
# [3] = system: Phospho-Akt S473; assay: ELISA analysis of Phospho-Akt S473 in primary cortical neuron cells; type: cell-based, mouse; details: 10 min at 37° C.
# Protocol: The primary cortical neuron cells were cultured in the same way as in Example 21, and after maturity, appropriate amount of freshly prepared culture medium was added until final volume in each well was 2 mL. The experiment included a blank control group (Vehicle), a positive control group BDNF (10 ng/mL), a control compound group (500 nM), and 6 test compound groups (500 nM). Three repeats were set for each dose. After incubating at 37° C. for 10 min, the culture solution was discarded and the cells were washed with pre-chilled PBS, and then 40 μL of pre-chilled lysate (RIPA buffer 10 mL and protease and phosphatase inhibitor 100 μL) was added to each well for lysis on ice for 30 min. After lysis, the cell was crushed by ultrasonic cell crusher, centrifuged at 14000 rpm for 20 min at 4° C. The supernatant was transferred to a new 1.5 mL centrifuge tube to extract protein. The p-Akt ELISA experiment quantitatively detected the intracellular p-Akt protein level.
# A series of p-Akt standard solutions with different concentrations were prepared, and the absorbance value was measured to make a standard curve. Phospho-Akt1 (Ser473) sandwich ELISA kit was purchased from Cell Signaling Technology (catalog number 7160). The antibody was coated in a 96-well plate at 4° C. overnight and was washed. The coated plate was blocked with 2% bovine serum albumin (BSA), and after sufficient washing, 100 μL of sample diluent (supplied in the kit) was added to each well to dilute the extracted protein. The plate was incubated overnight at 4° C. After washing 4 times with 200 μL of washing buffer (supplied in the kit), 100 μL/well of detection antibody was added and the plate was incubated at 37° C. for 1 hour. After 4 washes, 100 μL of HRP-conjugated secondary antibody (supplied in the kit) was added and the plate was incubated at 37° C. for 30 minutes. After the final wash, 100 μL of TMB substrate was added to each well and the plate was incubated at 37° C. for 10 minutes. TMB was use as a substrate to detect the signal, since TMB can be oxidized to produce a blue solution. The reaction was stopped by adding 100 μL/well stop solution, and the test result can remain stable within one hour after the stop of the reaction. The value of each well at 450 nm and 650 nm was detected using a microplate reader. The optical density (OD) was determined by subtracting the reading at 650 nm (disturbance from the solution itself) from the reading at 450 nm. According to the OD value corresponding to the standard curve, the p-Akt concentration in each well was obtained.
# the data of each group was expressed as mean standard error (x±SEM). The ratio of the detection results of each positive control group (BNDF), control compound group (the same control compound as in Example 21) and each test compound group to the blank control group was used as an indicator to compare the p-Akt test results of the positive control group, control compound group, and each test compound group. One-way ANOVA and LSD post-hoc test were used to compare the measurement data among multiple groups, and P<0.05 was considered statistically significant.
# [4] = system: rats with permanent cerebral ischemia; assay: Neurobehavioral scoring in rats with permanent cerebral ischemia (MCAO thread plug); type: in vivo, SD rats; details: 0.078 mg/kg intravenous
# Protocol: (§8) SD rats, male, about 220-250 g, were provided by the Experimental Animal Center of Medical College of Xi'an Jiaotong University. Rats were randomly divided into groups of 14 animals/group. The experiment included a sham group, a model group, a positive control Edaravone group and test compound groups 1-5.12 hours before the operation, the rats were fasted and were free to drink water, and then used for the modeling method of middle cerebral artery occlusion with thread plug. The rats were fixed on a wooden board after anesthesia, the common carotid artery was ligated proximally, the external carotid artery was ligated distally, and the main internal carotid artery into skull was retained. A ligature line was reserved at the bifurcation of the internal carotid artery for temporarily clamping the distal end of the internal carotid artery using an arterial clip. A 3-0 nylon thread with a length of 5 cm and a spherical shape with a diameter of 0.3 mm at the tip was inserted into the common carotid artery through a small incision at the bifurcation. The arterial clamp was loosened, and the thread plug was slowly advanced to 18˜20 mm. When there was resistance, the progress of the thread was stopped. At this time, the nylon thread plug entered the middle artery and blocked the blood flow, and then the ischemic phase began. The skin was sutured. In the sham operation group, the same procedure was executed, except that no thread plug was inserted.
# (§9) Administering was performed at 0 h, 3 h, 6 h and 12 h after ischemia, and then administering was performed once a day for 7 consecutive days. The test compound was prepared into a 4 mg/mL solution with 1% CMC-Na solution and administered by gavage. The edaravone group received an intravenous dose of 0.078 mg/kg.
# 2) The rats were lifted at its tail about 1 foot off the ground to observe the condition of both forelimbs. The rats were placed on a level ground and pushed on both shoulders to observe the difference in resistance on both sides. The rats were placed on the ground to observe the walking. The assessment was conducted using a five-grade four-point scoring method (0 to 4 points). The higher the score, the more severe the neurobehavioral damage.
# 0 point: the behavior is completely normal;
# 1 point: when the rat is lifted at its tail off the ground, the forelimb on the opposite side of the operation rotates and folds inwardly.
# 2 points: when the rat is placed on a level ground and pushed on both shoulders to observe the difference in resistance on both sides, the resistance on the opposite side of the operation reduces;
# 3 points: when the rat is placed on the ground to the walking, it circles around the opposite side of the operation;
# 4 points: The injury is so severe that the rat is unable to move independently.
# (§10) (2) Statistical analysis of data: SPSS18.0 statistical software was used for statistical analysis and the data of each group was expressed as the mean standard error (x±SEM). One-way ANOVA and multiple comparisons between groups were used to compare the averages of measurement data among multiple groups. Rank score test was used for behavioral grading data, and Kaplan-Meier method was used for mortality. P<0.05 was considered statistically significant.
# [5] = system: rats with permanent cerebral ischemia; assay: Cerebral infarction volume by TTC staining in rats with permanent cerebral ischemia; type: in vivo, SD rats; details: 0.078 mg/kg intravenous, after 7 days of ischemia
# Protocol: as §8, §9
# 3) Percentage of cerebral infarction volume after 7 days of ischemia: TTC staining was used to observe the infarct area.
# The rats in each group were sacrificed by spinal dislocation […]. The brain tissue was quickly peeled off and placed in the refrigerator at −20° C. to freeze to an appropriate hardness to remove the olfactory bulb, cerebellum and low brain stem. Continuous coronary slices were performed at 1 mm intervals, to obtain a total of 5 slices. The slices were placed in 0.5% triphenyltetrazolium chloride (TTC) in phosphate buffer (pH=7.4) and incubated in a 37° C. incubator without light for 15 min, and then fixed in paraformaldehyde and observed (fixed time should be within 24 h). The normal brain tissue is rosy red, and infarcted brain tissue is pale. After taking the picture, the slice was scanned to save the image. The area of cerebral infarction and the total area of slices were calculated using Image J processing software.
# Cerebral infarction volume (%)=(volume of the contralateral hemisphere of the operation−volume of the uninfarcted portion of the hemisphere of the occlusion)/volume of the contralateral hemisphere of the operation×100%
# as §10
# T1 sequence (P15209 32-821): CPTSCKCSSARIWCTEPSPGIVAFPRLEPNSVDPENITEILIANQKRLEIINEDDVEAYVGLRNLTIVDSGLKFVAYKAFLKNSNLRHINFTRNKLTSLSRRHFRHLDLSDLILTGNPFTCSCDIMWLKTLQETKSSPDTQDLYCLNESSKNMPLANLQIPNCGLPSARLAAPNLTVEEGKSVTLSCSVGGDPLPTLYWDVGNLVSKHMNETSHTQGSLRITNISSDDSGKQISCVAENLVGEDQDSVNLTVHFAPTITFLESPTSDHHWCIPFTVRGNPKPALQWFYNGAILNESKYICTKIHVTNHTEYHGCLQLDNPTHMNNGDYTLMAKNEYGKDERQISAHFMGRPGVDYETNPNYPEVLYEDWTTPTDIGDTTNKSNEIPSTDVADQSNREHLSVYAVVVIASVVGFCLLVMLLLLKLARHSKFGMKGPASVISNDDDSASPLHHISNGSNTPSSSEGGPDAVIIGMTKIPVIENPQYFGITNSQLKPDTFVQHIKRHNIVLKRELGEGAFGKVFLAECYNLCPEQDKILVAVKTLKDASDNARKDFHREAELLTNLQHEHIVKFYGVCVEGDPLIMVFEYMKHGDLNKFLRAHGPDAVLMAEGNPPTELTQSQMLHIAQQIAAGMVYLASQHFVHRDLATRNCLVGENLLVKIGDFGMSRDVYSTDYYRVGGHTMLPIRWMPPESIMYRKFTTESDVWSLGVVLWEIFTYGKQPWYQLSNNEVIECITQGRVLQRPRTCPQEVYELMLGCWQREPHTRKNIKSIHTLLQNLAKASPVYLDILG
molecule,measurement,setting,value
"O=c1cc(-c2ccc(N3CCOCC3)cc2)oc2c(O)c(O)ccc12 [Control compound, reference compound]",Relative intensity of p-TrkB/t-TrkB protein,[1]; 500 nM,138.890 ± 15.547
same,Relative intensity of p-AKT/t-AKT protein,[2]; 500 nM,147.748 ± 4.832
same,"Relative content of p-Akt protein (ELISA, ratio to blank control group)",[3]; 500 nM,138.33±2.08%
"CC1=NN(c2ccccc2)C(=O)C1 [Edaravone, reference compound]",Neurobehavioral score (0 to 4 points),[4]; 6 h after ischemia,2 ± 0.18
same,Neurobehavioral score (0 to 4 points),[4]; 1 d after ischemia,2.36 ± 0.29
same,Neurobehavioral score (0 to 4 points),[4]; 2 d after ischemia,2.89 ± 0.31
same,Neurobehavioral score (0 to 4 points),[4]; 3 d after ischemia,2.38 ± 0.37
same,Neurobehavioral score (0 to 4 points),[4]; 4 d after ischemia,2 ± 0.33
same,Neurobehavioral score (0 to 4 points),[4]; 5 d after ischemia,2.14 ± 0.46
same,Neurobehavioral score (0 to 4 points),[4]; 6 d after ischemia,2 ± 0.31
same,Neurobehavioral score (0 to 4 points),[4]; 7 d after ischemia,1.67 ± 0.21
same,Volume percentage of cerebral infarction,[5],33.50 ± 7.21%
"[2H]c1c(-c2ccc(N3CCCCC3)cc2)oc2c(O)c(O)ccc2c1=O [Example 7, 3-deutero-7,8-dihydroxy-2-(4-(piperidin-1-yl)phenyl)-4H-chromen-4-one]",Relative intensity of p-TrkB/t-TrkB protein,[1]; 500 nM,218.156 ± 12.556
same,Relative intensity of p-AKT/t-AKT protein,[2]; 500 nM,220.514 ± 3.476
same,"Relative content of p-Akt protein (ELISA, ratio to blank control group)",[3]; 500 nM,218.33±2.31%
"BDNF: Brain-derived neurotrophic factor, positive control, purchased from Peprotech (protein, UniProt P23560 19-247, looked up) Neurotrophic factor BDNF …: APMKEANIRGQGGLAYPGVRTHGTLESVNGPKAGSRGLTSLADTFEHVIEELLDEDQKVRPNEENNKDADLYTSRVMLSSQVPLEPPLLFLLEEYKNYLDAANMSMRVRRHSDPARRGELSVCDSISEWVTAADKKTAVDMSGGTVTVLEKVPVSKGQLKQYFYETKCNPMGYTKEGCRGIDKRHWNSQCRTTQSYVRALTMDSKKRIGWRFIRIDTSCVCTLTIKRGR",Increase of relative intensity of p-TrkB compared with Vehicle group,[1]; BDNF 10 ng/mL,2.74 times
same,Relative intensity of p-TrkB/t-TrkB protein,[1]; BDNF 10 ng/mL,274.260 ± 8.047
same,Relative intensity of p-AKT/t-AKT protein,[2]; BDNF 10 ng/mL,229.306 ± 3.912
same,"Relative content of p-Akt protein (ELISA, ratio to blank control group)",[3]; BDNF 10 ng/mL,231%
